Test: recombinant barcode read abundance after kanamycin selection (control-corrected) (log10(CPM+1)); higher = more efficient recombination; sequences stand for … in AGTGCAGAGAAAATCGGCCAGTTTTCTCTGCCTGCAGTCCGCATGCCGT…AGATTTATGCAGCGGACTGCCTTTCTCCCAAAGTGATAAACCGGACAGTATCATGGACCGGTTTTCCCGGTAATCCGTATTTGCAAGGTTGGTTTCACT; site = the 11-nt target
Outline: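 Each value is log10(CPM+1). It describes recombination efficiency, taken as averaged, control-corrected counts per million of barcodes at recombinant junctions. The pooled E. coli library paired targets with IS621 bridge RNA target-binding loops, was co-electroporated with a donor plasmid, and was plated twice on chloramphenicol/ampicillin LB agar (control) and twice on chloramphenicol/ampicillin/kanamycin containing 0.1 mM IPTG.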
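Further: IS621 recombinase and bridge RNA in Escherichia coli cells.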

Point of comparison: “ATAAGAGCTTGGGTTCTAACCTGTTGCCT (site ATAACAGCTAG)”, “recombinant barcode read abundance (log10)” value 0.0202. Against it:
- AGTTTCGCTTGGGTTCTAACCTGTTGCGG (site AGTATCGCTCC) — within 0.2 log units, 0.215
- AGTTTCGCTTGGGTTCTAACCTGTTGCGG (site AGTCTCGCTCC) — within 0.2 log units, 0.0337
- AGTTTCGCTTGGGTTCTAACCTGTTGCGG (site AGTGTCGCTCC) — within 0.2 log units, 0.0655
- AGTTTCGCTTGGGTTCTAACCTGTTGCGG (site AGTTTCGCTCC) — within 0.2 log units, 0.0842
- ATAAGAGCTTGGGTTCTAACCTGTTGCCT (site ATAAAAGCTAG) — higher, 0.385
- ATAAGAGCTTGGGTTCTAACCTGTTGCCT (site ATAAGAGCTAG) — higher, 1.15
- ATAAGAGCTTGGGTTCTAACCTGTTGCCT (site ATAATAGCTAG) — within 0.2 log units, 0.179
- ATAAGCTCTTGGGTTCTAACCTGTTGCCG (site ATAAGCTCTCG) — higher, 1.92
- ATAAGCTCTTGGGTTCTAACCTGTTGCCG (site GAGCAACCTAA) — within 0.2 log units, 0.0688
- ATAAGTCCTTGGGTTCTAACCTGTTGCGA (site ACAAGTCCTCC) — higher, 0.869
- ATAAGTCCTTGGGTTCTAACCTGTTGCGA (site ATAAGTCCTTC) — higher, 2.14
- ATAATACCTTGGGTTCTAACCTGTTGCCT (site ACAATACCTAG) — within 0.2 log units, 0.135
- ATAATACCTTGGGTTCTAACCTGTTGCCT (site ATAATACCTAG) — higher, 1.4
- ATAATAGCTTGGGTTCTAACCTGTTGCCT (site ATAAAAGCTAG) — within 0.2 log units, 0.0804
- ATAATAGCTTGGGTTCTAACCTGTTGCCT (site ATAACAGCTAG) — within 0.2 log units, 0.0342
- ATAATAGCTTGGGTTCTAACCTGTTGCCT (site ATAAGAGCTAG) — within 0.2 log units, 0.0465
- ATAATAGCTTGGGTTCTAACCTGTTGCCT (site ATAATAGCTAG) — higher, 1.63
- ATACCACCTTGGGTTCTAACCTGTTGCCT (site AAACCACCTAG) — higher, 0.278
- ATACCACCTTGGGTTCTAACCTGTTGCCT (site ACACCACCTAG) — higher, 1.24
- ATACCACCTTGGGTTCTAACCTGTTGCCT (site AGACCACCTAG) — higher, 0.431
- ATACCACCTTGGGTTCTAACCTGTTGCCT (site ATACCACCTAG) — higher, 1.77
- ATACCTCCTTGGGTTCTAACCTGTTGCCT (site ATACCTCCTAG) — higher, 1.69
- ATACCTCCTTGGGTTCTAACCTGTTGCCT (site CTAACTCCTAG) — within 0.2 log units, 0.148
- ATACGTCCTTGGGTTCTAACCTGTTGCAT (site AGACGTCCTAC) — higher, 0.224
- ATACGTCCTTGGGTTCTAACCTGTTGCAT (site ATACGTCCTAT) — higher, 1.12
- ATAGCCACTTGGGTTCTAACCTGTTGCCT (site ATAGCAACTAG) — within 0.2 log units, 0.141
- ATAGCCACTTGGGTTCTAACCTGTTGCCT (site ATAGCCACTAG) — higher, 1.02
- ATAGCCACTTGGGTTCTAACCTGTTGCCT (site ATAGCGACTAG) — within 0.2 log units, 0.0246
- ATAGCCACTTGGGTTCTAACCTGTTGCCT (site ATAGCTACTAG) — within 0.2 log units, 0.0679
- ATAGCGACTTGGGTTCTAACCTGTTGCCT (site ATAGCAACTAG) — higher, 1.18
- ATAGCGACTTGGGTTCTAACCTGTTGCCT (site ATAGCCACTAG) — within 0.2 log units, 0.13
- ATAGCGACTTGGGTTCTAACCTGTTGCCT (site ATAGCGACTAG) — higher, 1.54
- ATAGCGACTTGGGTTCTAACCTGTTGCCT (site ATAGCTACTAG) — within 0.2 log units, 0
- ATAGGAACTTGGGTTCTAACCTGTTGCCT (site ATAGGAACTAG) — higher, 1.4
- ATAGGAACTTGGGTTCTAACCTGTTGCCT (site ATGGGCACTAG) — within 0.2 log units, 0.0276
- ATAGGACCTTGGGTTCTAACCTGTTGCAG (site ATAGGACCTCT) — higher, 2.75
- ATAGGACCTTGGGTTCTAACCTGTTGCAG (site ATATGTCCTCT) — higher, 0.328
- ATAGGACCTTGGGTTCTAACCTGTTGCCA (site ATAGGACCTCG) — higher, 0.653
- ATAGGACCTTGGGTTCTAACCTGTTGCCA (site ATAGGACCTTG) — higher, 1.57
- ATAGGGACTTGGGTTCTAACCTGTTGCCT (site ATAGGGACTAG) — higher, 2.31
- ATAGGGACTTGGGTTCTAACCTGTTGCCT (site GTAGCGACTAG) — within 0.2 log units, 0.177
- ATAGGGACTTGGGTTCTAACCTGTTGCTA (site ATAAGGACTTA) — higher, 1.97
- ATAGGGACTTGGGTTCTAACCTGTTGCTA (site ATACGGACTTA) — higher, 0.291
- ATAGGGACTTGGGTTCTAACCTGTTGCTA (site ATAGGGACTTA) — higher, 2.91
- ATAGGGACTTGGGTTCTAACCTGTTGCTA (site ATATGGACTTA) — higher, 0.759
- ATAGTCCCTTGGGTTCTAACCTGTTGCCT (site ATAGTCCCTAG) — higher, 2.25
- ATAGTCCCTTGGGTTCTAACCTGTTGCCT (site ATGGTCCCTAG) — higher, 0.644
- ATAGTTACTTGGGTTCTAACCTGTTGCCT (site ATAGTTACTAG) — higher, 1.73
- ATAGTTACTTGGGTTCTAACCTGTTGCCT (site ATGATTACTAG) — within 0.2 log units, 0.129
- ATATACGCTTGGGTTCTAACCTGTTGCCT (site ATATACGCTAG) — higher, 1.84
- ATATACGCTTGGGTTCTAACCTGTTGCCT (site CTATAGGCTAG) — within 0.2 log units, 0.0578
- ATATCGTCTTGGGTTCTAACCTGTTGCCT (site ATATCGTCTAG) — higher, 1.61
- ATATCGTCTTGGGTTCTAACCTGTTGCCT (site CTATCGTCTAG) — within 0.2 log units, 0.0269
- ATATGCGCTTGGGTTCTAACCTGTTGCCG (site ATATGAGCTCG) — within 0.2 log units, 0.108
- ATATGCGCTTGGGTTCTAACCTGTTGCCG (site ATATGCGCTCG) — higher, 1.43
- ATATGCGCTTGGGTTCTAACCTGTTGCCG (site ATATGGGCTCG) — within 0.2 log units, 0.0781
- ATATGCGCTTGGGTTCTAACCTGTTGCCG (site ATATGTGCTCG) — higher, 0.262
- ATATGTACTTGGGTTCTAACCTGTTGCAG (site ATACGGACTCT) — within 0.2 log units, 0
- ATATGTACTTGGGTTCTAACCTGTTGCAG (site ATATGTACTCT) — higher, 2.1
- ATATGTGCTTGGGTTCTAACCTGTTGCCG (site ATATGAGCTCG) — within 0.2 log units, 0.0211
- ATATGTGCTTGGGTTCTAACCTGTTGCCG (site ATATGCGCTCG) — within 0.2 log units, 0.0242
- ATATGTGCTTGGGTTCTAACCTGTTGCCG (site ATATGGGCTCG) — within 0.2 log units, 0.108
- ATATGTGCTTGGGTTCTAACCTGTTGCCG (site ATATGTGCTCG) — higher, 1.71
- ATCAAGACTTGGGTTCTAACCTGTTGCCT (site ATAAAGACTAG) — higher, 0.266
- ATCAAGACTTGGGTTCTAACCTGTTGCCT (site ATCAAGACTAG) — higher, 1.42
- ATCAAGACTTGGGTTCTAACCTGTTGCCT (site ATGAAGACTAG) — higher, 0.252
- ATCAAGACTTGGGTTCTAACCTGTTGCCT (site ATTAAGACTAG) — higher, 0.272
- ATCACACCTTGGGTTCTAACCTGTTGCCT (site ATCACACCTAG) — higher, 0.761
- ATCACACCTTGGGTTCTAACCTGTTGCCT (site CTCACACCTAG) — within 0.2 log units, 0.102
- ATCACGTCTTGGGTTCTAACCTGTTGCCT (site ATCACGTCTAG) — higher, 1.4
- ATCACGTCTTGGGTTCTAACCTGTTGCCT (site CAGCATCCTCT) — within 0.2 log units, 0.0385
- ATCAGTTCTTGGGTTCTAACCTGTTGCTG (site ATCAGTTCTCA) — within 0.2 log units, 0.074
- ATCAGTTCTTGGGTTCTAACCTGTTGCTG (site GATTTCGCTAG) — within 0.2 log units, 0.155
- ATCCAACCTTGGGTTCTAACCTGTTGCCT (site ATCCAACCTAG) — higher, 1.89
- ATCCAACCTTGGGTTCTAACCTGTTGCCT (site ATCCACCCTAG) — within 0.2 log units, 0.123
- ATCCAACCTTGGGTTCTAACCTGTTGCCT (site ATCCAGCCTAG) — higher, 0.348
- ATCCAACCTTGGGTTCTAACCTGTTGCCT (site ATCCATCCTAG) — within 0.2 log units, 0.0128
- ATCCACCCTTGGGTTCTAACCTGTTGCCT (site ATCCAACCTAG) — within 0.2 log units, 0.15
- ATCCACCCTTGGGTTCTAACCTGTTGCCT (site ATCCACCCTAG) — higher, 2.07
- ATCCACCCTTGGGTTCTAACCTGTTGCCT (site ATCCAGCCTAG) — within 0.2 log units, 0.207
- ATCCACCCTTGGGTTCTAACCTGTTGCCT (site ATCCATCCTAG) — within 0.2 log units, 0.0749
- ATCCACCCTTGGGTTCTAACCTGTTGCGG (site ATCCACCCTCC) — higher, 3.07
- ATCCACCCTTGGGTTCTAACCTGTTGCGG (site GACCACCCTCC) — within 0.2 log units, 0.218
- ATCCATCCTTGGGTTCTAACCTGTTGCCT (site ATCCAACCTAG) — within 0.2 log units, 0.00851
- ATCCATCCTTGGGTTCTAACCTGTTGCCT (site ATCCACCCTAG) — within 0.2 log units, 0.0821

Source: the supplement of paper PMC11208160
